Assays:
APESV = assay: greenhouse pre-emergence herbicidal test; assay type: in vivo, Apera spica-venti; details: pre-emergence method, scale from 0 to 100
In short: (§1)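 Species-dependent temperatures of 10-25° C. or 20-35° C. were maintained for a 2 to 4 week test after pre-emergence nozzle application of compounds dispersed in water. Efficacy was scored 0-100, with 100 denoting no emergence or total aerial destruction.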

ALOMY = assay: greenhouse post-emergence herbicidal test; assay type: in vivo, Alopercurus myosuroides; details: post-emergence method, scale from 0 to 100
In short: (§2)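 Post-emergence; plants at 3–15 cm, treated with aqueous suspension/emulsion of compound. 10–25 °C or 20–35 °C per species, 2–4 wk. Score 0 (no damage) to 100 (aerial parts destroyed).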

POLCO = assay: greenhouse post-emergence herbicidal test; assay type: in vivo, Polygonum convolvulus; details: post-emergence method, scale from 0 to 100
Excerpt: (§3) The seeds of the test plants were sown separately for each species. For the post-emergence treatment, the test plants were first grown to a height of 3 to 15 cm, depending on the plant habit, and only then treated with the active ingredients which had been suspended or emulsified in water. For this purpose, the test plants were either sown directly and grown in the same containers, or they were first grown separately as seedlings and transplanted into the test containers a few days prior to treatment. Depending on the species, the plants were kept at 10-25° C. or 20-35° C., respectively. The test period extended over 2 to 4 weeks. During this time, the plants were tended, and their response to the individual treatments was evaluated. Evaluation was carried out using a scale from 0 to 100. 100 means no emergence of the plants, or complete destruction of at least the aerial moieties, and 0 means no damage, or normal course of growth. […] The plants used in the greenhouse experiments were of the following species: [table]

ABUTH = assay: greenhouse post-emergence herbicidal test; assay type: in vivo, Abutilon theophrasti; details: post-emergence method, scale from 0 to 100
Excerpt: as §3

AMARE = assay: greenhouse post-emergence herbicidal test; assay type: in vivo, Amaranthus retroflexus; details: post-emergence method, application rate 500 g/ha, scale from 0 to 100
Excerpt: as §3

ECHCG [1] = assay: greenhouse pre-emergence herbicidal test; assay type: in vivo, Echinocloa crus-galli; details: pre-emergence method, scale from 0 to 100
In short: as §1

ECHCG [2] = assay: greenhouse post-emergence herbicidal test; assay type: in vivo, Echinocloa crus-galli; details: post-emergence method, application rate 500 g/ha, scale from 0 to 100
In short: as §2

AVEFA = assay: greenhouse post-emergence herbicidal test; assay type: in vivo, Avena fatua; details: post-emergence method, application rate 500 g/ha, scale from 0 to 100
In short: as §2

| Structure (SMILES) | herbicidal activity against APESV (APESV; application rate 500 g/ha) | herbicidal activity against POLCO (POLCO; application rate 500 g/ha) | herbicidal activity against ECHCG (ECHCG [1]; application rate 500 g/ha) | herbicidal activity against ECHCG (ECHCG [2]) | other results |
| --- | --- | --- | --- | --- | --- |
| O=C(O)c1nc(C2CC2)ncc1-c1c(F)cc(Cl)cc1Cl [example 148] |  |  |  |  | herbicidal activity against APESV (APESV; application rate 250 g/ha): very good (a very good herbicidal activity is given at values of at least 85); herbicidal activity against ALOMY (ALOMY; application rate 250 g/ha): very good (a very good herbicidal activity is given at values of at least 85); herbicidal activity against POLCO (POLCO; application rate 250 g/ha): very good (a very good herbicidal activity is given at values of at least 85) |
| COC(=O)c1nc(C2CCC2)ncc1-c1ccccc1Cl [example 277] | good (A good herbicidal activity is given at values of at least 70) |  |  |  | herbicidal activity against ABUTH (ABUTH; application rate 500 g/ha): very good (a very good herbicidal activity is given at values of at least 85) |
| COC(=O)c1nc(C2CC2)ncc1-c1cc(Cl)ccc1Cl [example 204] | very good (a very good herbicidal activity is given at values of at least 85) | very good (a very good herbicidal activity is given at values of at least 85) |  |  | herbicidal activity against AMARE (AMARE): very good (a very good herbicidal activity is given at values of at least 85) |
| Cc1ccc(-c2cnc(C3CC3)nc2C(=O)O)c(C)c1 [example 168] | very good (a very good herbicidal activity is given at values of at least 85) | very good (a very good herbicidal activity is given at values of at least 85) | very good (a very good herbicidal activity is given at values of at least 85) |  | herbicidal activity against ALOMY (ALOMY; application rate 500 g/ha): good (A good herbicidal activity is given at values of at least 70) |
| CC(C)(C)SC(=O)c1nc(C2CC2)ncc1-c1ccccc1Cl [example 281] | very good (a very good herbicidal activity is given at values of at least 85) | very good (a very good herbicidal activity is given at values of at least 85) |  |  | herbicidal activity against ALOMY (ALOMY; application rate 500 g/ha): very good (a very good herbicidal activity is given at values of at least 85) |
| O=C(O)c1nc(C2CC2)ncc1-c1ccccc1OC(F)F [example 181] | very good (a very good herbicidal activity is given at values of at least 85) | very good (a very good herbicidal activity is given at values of at least 85) | very good (a very good herbicidal activity is given at values of at least 85) | good (A good herbicidal activity is given at values of at least 70) |  |
| O=C(O)c1nc(C2CC2)ncc1-c1ccccc1SC(F)(F)F [example 310] |  |  |  |  | herbicidal activity against ABUTH (ABUTH; application rate 1000 g/ha): good (A good herbicidal activity is given at values of at least 70) |
| Cc1ccc(C)c(-c2cnc(N(C)C)nc2C(=O)O)c1 [example 129] | very good (a very good herbicidal activity is given at values of at least 85) |  | good (A good herbicidal activity is given at values of at least 70) |  | herbicidal activity against ABUTH (ABUTH; application rate 500 g/ha): good (A good herbicidal activity is given at values of at least 70) |
| COC(=O)c1nc(C2CC2)ncc1-c1c(C)cccc1C [example 225] | very good (a very good herbicidal activity is given at values of at least 85) | very good (a very good herbicidal activity is given at values of at least 85) | very good (a very good herbicidal activity is given at values of at least 85) | good (A good herbicidal activity is given at values of at least 70) |  |
| O=C(O)c1ccccc1-c1cnc(C2CC2)nc1C(=O)O [example 318] |  |  |  |  | herbicidal activity against ABUTH (ABUTH; application rate 2000 g/ha): very good (a very good herbicidal activity is given at values of at least 85); herbicidal activity against ECHCG (ECHCG [1]; application rate 2000 g/ha): very good (a very good herbicidal activity is given at values of at least 85) |
| COc1ccc(Cl)c(-c2cnc(C3CC3)nc2C(=O)O)c1 [example 145] | very good (a very good herbicidal activity is given at values of at least 85) | very good (a very good herbicidal activity is given at values of at least 85) | very good (a very good herbicidal activity is given at values of at least 85) | very good (a very good herbicidal activity is given at values of at least 85) |  |
| O=C(O)c1nc(C2CC2)ncc1-c1ccccc1C(F)F [example 309] | very good (a very good herbicidal activity is given at values of at least 85) | very good (a very good herbicidal activity is given at values of at least 85) | very good (a very good herbicidal activity is given at values of at least 85) |  | herbicidal activity against ALOMY (ALOMY; application rate 500 g/ha): very good (a very good herbicidal activity is given at values of at least 85); herbicidal activity against AVEFA (AVEFA): very good (a very good herbicidal activity is given at values of at least 85) |
| CCCOc1ccc(C(F)(F)F)cc1-c1cnc(C2CC2)nc1C(=O)O [example 306] |  |  |  |  | herbicidal activity against ABUTH (ABUTH; application rate 1000 g/ha): very good (a very good herbicidal activity is given at values of at least 85) |
| COC(=O)c1nc(OC)ncc1-c1ccccc1Cl [example 61] | very good (a very good herbicidal activity is given at values of at least 85) | very good (a very good herbicidal activity is given at values of at least 85) | very good (a very good herbicidal activity is given at values of at least 85) | good (A good herbicidal activity is given at values of at least 70) | herbicidal activity against ALOMY (ALOMY; application rate 500 g/ha): good (A good herbicidal activity is given at values of at least 70) |
| COc1ncc(-c2ccccc2Cl)c(C(=O)O)n1 [example 51] | very good (a very good herbicidal activity is given at values of at least 85) | very good (a very good herbicidal activity is given at values of at least 85) | very good (a very good herbicidal activity is given at values of at least 85) | good (A good herbicidal activity is given at values of at least 70) | herbicidal activity against AVEFA (AVEFA): good (A good herbicidal activity is given at values of at least 70) |
| CCc1ncc(-c2ccccc2OC)c(C(=O)O)n1 [example 16] |  |  |  |  | herbicidal activity against APESV (APESV; application rate 2000 g/ha): very good (a very good herbicidal activity is given at values of at least 85); herbicidal activity against ABUTH (ABUTH; application rate 2000 g/ha): very good (a very good herbicidal activity is given at values of at least 85); herbicidal activity against ECHCG (ECHCG [1]; application rate 2000 g/ha): very good (a very good herbicidal activity is given at values of at least 85) |
| CCOc1ncc(-c2cc(C)ccc2C)c(C(=O)O)n1 [example 68] | very good (a very good herbicidal activity is given at values of at least 85) | very good (a very good herbicidal activity is given at values of at least 85) | very good (a very good herbicidal activity is given at values of at least 85) | good (A good herbicidal activity is given at values of at least 70) |  |
| COC(=O)c1nc(C2CC2)ncc1-c1cccc(F)c1Cl [example 210] | very good (a very good herbicidal activity is given at values of at least 85) | very good (a very good herbicidal activity is given at values of at least 85) | very good (a very good herbicidal activity is given at values of at least 85) | very good (a very good herbicidal activity is given at values of at least 85) |  |
| COc1ccccc1-c1cnc(C(C)C)nc1C(=O)O [example 35] |  |  |  |  | herbicidal activity against APESV (APESV; application rate 1000 g/ha): very good (a very good herbicidal activity is given at values of at least 85); herbicidal activity against ABUTH (ABUTH; application rate 1000 g/ha): very good (a very good herbicidal activity is given at values of at least 85); herbicidal activity against ECHCG (ECHCG [1]; application rate 1000 g/ha): very good (a very good herbicidal activity is given at values of at least 85) |
| COC(=O)c1nc(C2CC2)ncc1-c1ccccc1C(F)F [example 308] | very good (a very good herbicidal activity is given at values of at least 85) | very good (a very good herbicidal activity is given at values of at least 85) | very good (a very good herbicidal activity is given at values of at least 85) |  | herbicidal activity against ALOMY (ALOMY; application rate 500 g/ha): very good (a very good herbicidal activity is given at values of at least 85); herbicidal activity against AVEFA (AVEFA): very good (a very good herbicidal activity is given at values of at least 85) |

Source: patent US10420341B2, “Herbicidal phenylpyrimidines” (BASF SE, priority 2015, dated 2019)
